Measured values from the supplement of paper PMC8671470.
Counter-ions that a name gives are not always drawn.

Experiments:
Conditions in all cases: 72 h
SHI-1 [1] = test: cell viability (% survival relative to DMSO control, bortezomib = 0%); higher = less cytotoxic
How it was run: (§1)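 Seeding density for each of the 10 AML and 5 CML cell lines was titrated to the linear growth range. Cells went into 384-well plates pre-printed in duplicate with compounds at 1, 10, 100, 1000 or 10000 nM and were held for 72 h at 37 °C with 5% CO2. CellTiter-Glo luminescence then provided the readout. Percent survival is expressed relative to vehicle at 100% and a 10 µM positive control at 0%, averaged over duplicates.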

HL-60 [2] = test: as above
How it was run: as §1

K-562 [3] = test: as above
How it was run: as §1

KG-1 [4] = test: as above
How it was run: as §1

ML-2 [5] = test: as above
How it was run: as §1

HEL [6] = test: as above
How it was run: as §1

Mono-Mac-6 [7] = test: as above
How it was run: as §1

KCL-22 [8] = test: as above
How it was run: as §1

LAMA-84 [9] = test: as above
How it was run: as §1

MV4-11 [10] = test: as above
How it was run: as §1

BV-173 [11] = test: as above
How it was run: as §1

HL-60 [12] = test: cell viability (% survival relative to DMSO control); higher = less cytotoxic
How it was run: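 For each screen, HL-60 cells in RPMI 1640 with 10% FBS carried either DMSO or 100 nM of one of three metabolic inhibitors while the full library was applied at five tenfold concentrations, 1–10,000 nM, in duplicate. Plates were 384-well and were kept 72 h at 37 °C, 5% CO2. Viability, measured by CellTiter-Glo, was normalised to wells with DMSO and with 10 μM proteasome inhibitor. Where area under the curve appears, it was fitted by four-parameter log-logistic models in drc and PharmacoGx.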

SHI-1 [13] = test system: SHI-1
How it was run: (§2)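 The IC50 was derived from log-logistic dose–response fitting. Each of fifteen myeloid leukaemia cell lines, seeded in RPMI 1640 within its linear growth range, was exposed in 384-well plates to five tenfold doses (1 to 10,000 nM) in duplicate for 72 h at 37 °C and 5% CO2. Luminescent ATP viability readings were normalised to vehicle and to a positive control at 10 µM before four-parameter curve fitting.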

HL-60 [14] = test system: HL-60
How it was run: as §2

K-562 [15] = test system: K-562
How it was run: as §2

KU-812 = test system: KU-812
How it was run: as §2

KG-1 [16] = test system: KG-1
How it was run: as §2

ML-2 [17] = test system: ML-2
How it was run: as §2

HEL [18] = test system: HEL
How it was run: as §2

Mono-Mac-6 [19] = test system: Mono-Mac-6
How it was run: as §2

KCL-22 [20] = test system: KCL-22
How it was run: as §2

LAMA-84 [21] = test system: LAMA-84
How it was run: as §2

THP-1 = test system: THP-1
How it was run: as §2

MV4-11 [22] = test system: MV4-11
How it was run: as §2

NOMO-1 = test system: NOMO-1
How it was run: as §2

BV-173 [23] = test system: BV-173
How it was run: as §2

MOLM-13 = test system: MOLM-13
How it was run: as §2

OCC(CO)N[C@H]1C[C@](O)(CO)[C@@H](O)[C@H](O)[C@H]1O [Voglibose]
cell viability [%]
Conditions | 1 nM | 10 nM | 100 nM | 1000 nM | 10000 nM
BV-173 [11] | 113 | 112 | 99.3 | 93.8 | 102
HEL [6] | 124 | 107 | 97.3 | 99.1 | 118
HL-60 [2] | 119 | 99.5 | 116 | 88.2 | 94.6
K-562 [3] | 97.9 | 107 | 113 | 89.4 | 99.3
KCL-22 [8] | 99.4 | 97.1 | 98 | 98.1 | 111
KG-1 [4] | 95.6 | 102 | 107 | 95.6 | 106
LAMA-84 [9] | 102 | 105 | 99.6 | 94.6 | 103
ML-2 [5] | 109 | 110 | 107 | 95.2 | 111
MV4-11 [10] | 106 | 107 | 113 | 84.7 | 52.7
Mono-Mac-6 [7] | 102 | 96 | 109 | 86.7 | 91.8
SHI-1 [1] | 106 | 108 | 100 | 96 | 94.4

cell viability [%], HL-60 [12]
Conditions | 0.001 µM | 0.01 µM | 0.1 µM | 1 µM | 10 µM
co-treatment: AZD3965 100 nM | 96.2 | 103 | 100 | 96.5 | 93.58
co-treatment: DMSO vehicle | 99.5 | 99.9 | 100 | 99.4 | 99.5
co-treatment: GSK2194069 100 nM | 104 | 104 | 104 | 79.9 | 97.3
co-treatment: pictilisib 100 nM | 113 | 112 | 106 | 81.9 | 99.1

Conditions | IC50 (cell viability) [µM]
BV-173 [23] | > 10
HEL [18] | > 10
HL-60 [14] | > 10
K-562 [15] | > 10
KCL-22 [20] | > 10
KG-1 [16] | > 10
KU-812 | > 10
LAMA-84 [21] | > 10
ML-2 [17] | > 10
MOLM-13 | > 10
MV4-11 [22] | 6.47
Mono-Mac-6 [19] | > 10
NOMO-1 | > 10
SHI-1 [13] | > 10
THP-1 | > 10

O=C(Oc1cccc(F)c1OC(=O)c1cccc(O)c1)c1cccc(O)c1 [WZB117]
cell viability [%]
Conditions | 1 nM | 10 nM | 100 nM | 1000 nM | 10000 nM
BV-173 [11] | 96 | 104 | 90.5 | 98.8 | 15.4
HEL [6] | 107 | 110 | 95.2 | 99.8 | 72.7
HL-60 [2] | 102 | 98 | 93.3 | 104 | 48
K-562 [3] | 96.2 | 101 | 102 | 106 | 79.1
KCL-22 [8] | 101 | 91.4 | 92 | 110 | 70.6
KG-1 [4] | 113 | 95.7 | 87.6 | 90.4 | 30.7
LAMA-84 [9] | 97.9 | 98.6 | 92.4 | 95.1 | 101
ML-2 [5] | 102 | 104 | 98.7 | 98.8 | 25.5
MV4-11 [10] | 106 | 85.9 | 97 | 88.2 | 25.4
Mono-Mac-6 [7] | 96.6 | 104 | 99.7 | 101 | 16.9
SHI-1 [1] | 95.8 | 95.6 | 102 | 103 | 72.5

cell viability [%], HL-60 [12]
Conditions | 0.001 µM | 0.01 µM | 0.1 µM | 1 µM | 10 µM
co-treatment: AZD3965 100 nM | 102.1 | 97.3 | 103.1 | 101.6 | 68.9
co-treatment: DMSO vehicle | 103 | 98.8 | 99 | 101 | 73.3
co-treatment: GSK2194069 100 nM | 102 | 91.2 | 95.2 | 99.8 | 84.6
co-treatment: pictilisib 100 nM | 111 | 100 | 96.8 | 97.1 | 70.9

Conditions | IC50 (cell viability) [µM]
BV-173 [23] | 4.56
HEL [18] | > 10
HL-60 [14] | 9.7
K-562 [15] | > 10
KCL-22 [20] | > 10
KG-1 [16] | 5.35
KU-812 | 3.88
LAMA-84 [21] | > 10
ML-2 [17] | 5.89
MOLM-13 | 8.47
MV4-11 [22] | 2.93
Mono-Mac-6 [19] | 4.74
NOMO-1 | > 10
SHI-1 [13] | > 10
THP-1 | > 10

CC(C)(Cc1ccccc1)NCC(O)c1ccc(O)c(NS(C)(=O)=O)c1 (stereo not given) [Zinterol hydrochloride]
cell viability [%]
Conditions | 1 nM | 10 nM | 100 nM | 1000 nM | 10000 nM
BV-173 [11] | 113 | 93.6 | 106 | 87 | 121
HEL [6] | 77.8 | 101 | 103 | 110 | 93.5
HL-60 [2] | 107 | 113 | 85 | 87.7 | 112
K-562 [3] | 92.5 | 107 | 99.9 | 107 | 111
KCL-22 [8] | 96.1 | 99.4 | 98.2 | 103 | 95.6
KG-1 [4] | 118 | 94.5 | 99.6 | 87.9 | 102
LAMA-84 [9] | 106 | 99.1 | 112 | 96.6 | 101
ML-2 [5] | 95.4 | 93.3 | 93 | 93.9 | 103
MV4-11 [10] | 89.7 | 79.9 | 84.5 | 74.3 | 88.4
Mono-Mac-6 [7] | 72.2 | 51.5 | 49 | 48.6 | 50.1
SHI-1 [1] | 111 | 112 | 103 | 110 | 120

cell viability [%], HL-60 [12]
Conditions | 0.001 µM | 0.01 µM | 0.1 µM | 1 µM | 10 µM
co-treatment: AZD3965 100 nM | 99.4 | 83.1 | 101 | 93.8 | 95.4
co-treatment: DMSO vehicle | 99.8 | 91.6 | 99.8 | 102 | 95.5
co-treatment: GSK2194069 100 nM | 97.9 | 100 | 95.1 | 101 | 94.64
co-treatment: pictilisib 100 nM | 85.5 | 91.4 | 86.6 | 90.4 | 72.6

Conditions | IC50 (cell viability) [µM]
BV-173 [23] | > 10
HEL [18] | > 10
HL-60 [14] | > 10
K-562 [15] | > 10
KCL-22 [20] | > 10
KG-1 [16] | > 10
KU-812 | > 10
LAMA-84 [21] | > 10
ML-2 [17] | > 10
MOLM-13 | > 10
MV4-11 [22] | > 10
Mono-Mac-6 [19] | 0.0976
NOMO-1 | > 10
SHI-1 [13] | > 10
THP-1 | > 10
